The subject of series [1] is HRV-14. Put plainly: Antirhinoviral HI-HeLa Cell Culture Assay (cell protection, XTT), HRV-14. Format: cell-based, human rhinovirus. The conditions noted are these: for TI: CC50/EC50, HRV serotype-14, 2880 min; for pEC50: Rhinovirus B, HRV14, 48 h, HRV serotype-14 infected HI-HeLa cells, XTT, two days. The essentials:
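HI-HeLa cells infected at m.o.i. 0.13 (or mock-infected), 8×10^5 cells/mL, incubated with compounds for two days; XTT/PMS formazan read at 450/650 nm. EC50 is the concentration restoring formazan in infected cells to 50% of compound-free mock-infected; CC50 is 50% decrease in mock-infected cells; TI = CC50/EC50.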

Series [2] addresses T1, Rhinovirus 3C protease (RVP) serotype-14 (Human rhinovirus 14, UniProt P03303).
T1 construct: Recombinant Rhinovirus 3C proteases from serotypes 14, 16, 2 or 89 were prepared; made in house
Put plainly: Inhibition of Rhinovirus Protease, serotype 14 (FRET assay). It counts as biochemical. The conditions noted are these: for pKi: RVP serotype-14, 10 minute preincubation with 50 nM RVP prior to addition of substrate, read-out: INHIB (Ki); for kinact/KI: read-out: kobs/I. The essentials: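 Recombinant HRV 3C protease (50–100 nM) in 50 mM tris pH 7.6, 1 mM EDTA, 2% DMSO, with ~1 μM DABCYL-GRAVFQGPVG-EDANS FRET substrate; cleavage read as fluorescence increase. Ki: compound and enzyme preincubated 10 min at 30° C before substrate start; kobs/I from enzyme-start progress curves. Values are percent inhibition at stated μM, or Ki.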

For series [3], the target named is T2, Rhinovirus 3C protease (RVP) serotype 16 (Human rhinovirus 16, UniProt Q82122).
T2 construct: Recombinant Rhinovirus 3C proteases from serotypes 14, 16, 2 or 89 were prepared; made in house
T2 sequence (Q82122 1511-1693): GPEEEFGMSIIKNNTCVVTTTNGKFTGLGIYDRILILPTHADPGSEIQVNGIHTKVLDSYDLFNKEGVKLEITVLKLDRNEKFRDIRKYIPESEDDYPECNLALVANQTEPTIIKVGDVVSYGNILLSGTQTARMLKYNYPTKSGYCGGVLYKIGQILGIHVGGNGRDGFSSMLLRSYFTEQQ
Briefly: Inhibition of Rhinovirus Protease, serotype 16 (FRET assay). The conditions noted are these: enzyme start experiments, read-out: kobs/I. Format: biochemical. The procedure: (§1) Stock solutions (50 mM, in DMSO) of various compounds were prepared; dilutions were in the same solvent. Recombinant Rhinovirus 3C proteases from serotypes 14, 16, 2 or 89 were prepared by the following standard chromatographic procedures: (1) ion exchange using Q Sepharose Fast Flow from Pharmacia; (2) affinity chromatography using Affi-Gel Blue from Biorad; and (3) sizing using Sephadex G-100 from Pharmacia. Assays contained 2% DMSO, 50 mM tris pH 7.6, 1 mM EDTA, a compound at the indicated concentrations, approximately 1 μM substrate, and 50-100 nM protease. For Ki determinations, the compound and the enzyme were preincubated for 10 minutes at 30° C. prior to addition of the substrate (substrate start). The kobs/I values were obtained from reactions initiated by addition of enzyme rather than substrate. RVP activity is measured in the fluorescence resonance energy transfer assay. The substrate was (N-terminal) DABCYL-(Gly-Arg-Ala-Val-Phe-Gln-Gly-Pro-Val-Gly)-EDANS. In the uncleaved peptide, the EDANS fluorescence was quenched by the proximal DABCYL moiety. When the peptide was cleaved, the quenching was relieved, and activity was measured as an increase in fluorescence signal.
(§2) In the above table, all data is for RVP serotype-14 unless otherwise noted in parentheses. All strains of human rhinovirus (HRV) were purchased from American Type Culture Collection (ATCC), except for serotype 14, which was produced from the infectious cDNA clone constructed and supplied to us by Dr. Roland Rueckert at the Institute for Molecular Virology, University of Wisconsin, Madison, Wis. The column designated INHIB represents the percent inhibition, with the concentration of the compound in μM indicated in parentheses, unless Ki was assigned as designated by (Ki), at 10 minute preincubation with 50 nM RVP prior to addition of substrate was used. The data in the column designated kobs/I was measured from progress curves in enzyme start experiments.

The target in series [4] is T3, Rhinovirus 3C protease (RVP) serotype 2 (Human rhinovirus 2, UniProt P04936).
T3 construct: Recombinant Rhinovirus 3C proteases from serotypes 14, 16, 2 or 89 were prepared; made in house
T3 sequence (P04936 1508-1690): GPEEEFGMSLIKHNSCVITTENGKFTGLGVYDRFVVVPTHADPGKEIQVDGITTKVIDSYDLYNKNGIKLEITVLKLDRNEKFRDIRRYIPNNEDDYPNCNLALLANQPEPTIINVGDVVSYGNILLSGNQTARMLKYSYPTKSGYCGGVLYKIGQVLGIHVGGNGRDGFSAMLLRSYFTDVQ
Put plainly: Inhibition of Rhinovirus Protease, serotype 2 (FRET assay). The conditions noted are these: enzyme start experiments, read-out: kobs/I. Format: biochemical. As for the experimental part:
as §1, §2

A short description of series [5]: in vitro. Format: cell-based. The following applies: human, hi-hela cells. The essentials:
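HI-HeLa cells infected with HRV-14 at m.o.i. 0.13 or mock-infected, incubated with compounds for two days; XTT/PMS formazan read at 450/650 nm. EC50 as concentration restoring formazan to 50% of mock-infected level; CC50 from mock-infected cells; TI = CC50/EC50.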

pEC50, pKi: −log10 of the molar value. Where only a bound is given, the exact number is not on record here.

T1 sequence (P03303 1538-1719): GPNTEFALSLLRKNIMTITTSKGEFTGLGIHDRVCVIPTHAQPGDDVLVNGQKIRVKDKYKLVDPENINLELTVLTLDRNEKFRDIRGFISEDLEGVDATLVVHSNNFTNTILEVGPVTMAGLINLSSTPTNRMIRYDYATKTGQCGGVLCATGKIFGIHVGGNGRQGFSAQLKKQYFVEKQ

Usually pEC50 stands for −log10 of the EC50, conventionally taken in molar units. High values mean a small EC50, low ones a large EC50. As usually defined, the pKi is −log10 of the Ki, conventionally taken in molar units. The term CC50 denotes the concentration at which the toxic effect on the cells reaches its halfway point. In series [1], `CCOC(=O)/C=C/[C@H](CCC(N)=O)NC(=O)[C@@H]1CCCN1C(=O)[C@H](CC(C)C)NC(=O)SCC` [Compound 24, Ethyl-3-(Ethythiocarbonyl-L-Leu-L-Pro-L-Gln)-E-Propenoate] showed a TI above 10 and a pEC50 of 5.00. In addition, in series [2], the negative logarithm of the Ki (pKi) is 5.10 and the kinact/KI is 22000 M⁻¹ s⁻¹. In series [3], the kinact/KI was determined as 9300 M⁻¹ s⁻¹. Besides, the kinact/KI in series [4] amounted to 7100 M⁻¹ s⁻¹. Further, in series [5], the 50% cytotoxic concentration (CC50) at 48 h is above 100 µM.
As for `CCOC(=O)/C(C)=C/[C@H](CCC(N)=O)NC(=O)[C@H](Cc1ccccc1)N(C)C(=O)[C@H](CC(C)C)NC(=O)SCc1ccccc1` [Compound 16, Ethyl-2-Methyl-3-(Benzylthiocarbonyl-L-Leu-L-N-Me-Phe-L-Gln)-E-Propenoate], in series [1], the TI was found to be 19. Besides, the pEC50 in series [1] was 5.77. Besides, the pKi in series [2] was 4.92. Also, the kinact/KI stood at 8300 M⁻¹ s⁻¹ in series [2], 1000 M⁻¹ s⁻¹ in series [3] and 600 M⁻¹ s⁻¹ in series [4]. This molecule registered a CC50 at 48 h in series [5] of 32 µM.
In the case of `CCOC(=O)/C=C/[C@H](CCC(N)=O)NC(=O)[C@@H]1CCc2ncc(NC(=O)OCc3ccccc3)c(=O)n21` [Compound 37, Ethyl-3-[(S)-3-(CBZ-Amino)4-Oxo-4,6,7,8-Tetrahydropyrrolo [1,2-α]Pyrimidine-6-L-Gln]-E-Propenoate], the TI in series [1] was above 11. The pEC50 in series [1] is 5.05. The results for the kinact/KI in series [2], in series [3] and in series [4] were 12400 M⁻¹ s⁻¹, 4000 M⁻¹ s⁻¹ and 2500 M⁻¹ s⁻¹, respectively. The molecule also had a CC50 at 48 h in series [5] above 100 µM.
In series [1], `CCOC(=O)/C=C/[C@H](CCC(N)=O)NC(=O)[C@@H]1CCCCN1C(=O)[C@H](CC(C)C)NC(=O)OCc1ccccc1` [Compound 25, Ethyl-3-[CBZ-L-Leu-L-Pip-L-Gln]-E-Propenoate] registered a TI above 23. In series [1], this molecule had a pEC50 of 4.85. Besides, the kinact/KI was determined as 1470 M⁻¹ s⁻¹ in series [2], 770 M⁻¹ s⁻¹ in series [3] and 1280 M⁻¹ s⁻¹ in series [4]. In series [5], the CC50 at 48 h is above 320 µM.
Consider `CCOC(=O)/C=C/[C@H](CCC(N)=O)NC(=O)[C@H](Cc1ccccc1)N(C)C(=O)[C@@H](NC(=O)SCC)C(C)C` [Compound 34, Ethyl-3-(Ethylthiocarbonyl-L-Val-L-N-Me-Phe-L-Gln)-E-Propenoate], for which the TI in series [1] was above 312. In series [1], this molecule gave a pEC50 of 6.49. Further, the kinact/KI amounted to 13400 M⁻¹ s⁻¹ in series [2], 2060 M⁻¹ s⁻¹ in series [3] and 940 M⁻¹ s⁻¹ in series [4]. The molecule also displayed a CC50 at 48 h in series [5] above 100 µM.
The molecule `CCOC(=O)/C=C/[C@H](CCC(N)=O)NC(=O)[C@H](Cc1ccc(C)cc1)N(C)C(=O)[C@H](CCc1ccccc1)NC(=O)SCc1ccccc1` [Compound 13, Ethyl-3-[Benzylthiocarbonyl-L-hPhe-L-N-Me-(4-Me-Phe)-L-Gln] -E-Propenoate] registered a TI in series [1] of 148. In addition, the pEC50 in series [1] was 6.92. The results for the kinact/KI in series [2], in series [3] and in series [4] were 356000 M⁻¹ s⁻¹, 11700 M⁻¹ s⁻¹ and 3980 M⁻¹ s⁻¹, respectively. The molecule further had a CC50 at 48 h in series [5] of 17.8 µM.
For `CCOC(=O)/C(C)=C/[C@H](CCC(N)=O)NC(=O)[C@H](Cc1ccc(C)cc1)N(C)C(=O)[C@H](CCc1ccccc1)NC(=O)SCc1ccccc1` [Compound 14, Ethyl-2-Methyl-3-[Benylthiocarbonyl-L-hPhe-L-N-Me-(4-Me)-Phe-L-Gln]-E-Propenoate], the TI in series [1] was 49. Besides, the pEC50 in series [1] is 6.49. Besides, in series [2], the pKi was 6.10. Besides, the kinact/KI came out at 56400 M⁻¹ s⁻¹ in series [2], 1800 M⁻¹ s⁻¹ in series [3] and 800 M⁻¹ s⁻¹ in series [4]. This molecule also displayed a CC50 at 48 h in series [5] of 15.8 µM.
In series [1], `CCOC(=O)/C=C/[C@H](CCC(N)=O)NC(=O)C1CNCCN1C(=O)[C@H](CC(C)C)NC(=O)OCc1ccccc1` (mixture of isomers) [Compound 27, Ethyl-3-(CBZ-L-Leu-DL-Pipz-L-Gln)-E-Propenoate] showed a pEC50 below 3.49. Also, the values for the kinact/KI in series [2], in series [3] and in series [4] were 102 M⁻¹ s⁻¹, 90 M⁻¹ s⁻¹ and 87 M⁻¹ s⁻¹, respectively. This molecule registered a CC50 at 48 h in series [5] above 320 µM.
In series [1], `CCOC(=O)/C=C/[C@H](CCC(N)=O)NC(=O)[C@H](Cc1ccc(OC)cc1)N(C)C(=O)[C@H](CC(C)C)NC(=O)OCc1ccccc1` [Compound 3, Ethyl-3-[CBZ-L-Leu-L-N-Me-(OMe)-Tyr-L-Gln]-E-Propenoate] gave a TI of 232 and a pEC50 of 6.74. Moreover, in series [2], the pKi is 4.92 and the kinact/KI was found to be 16600 M⁻¹ s⁻¹. Further, the kinact/KI in series [3] was determined as 929 M⁻¹ s⁻¹. Further, the kinact/KI in series [4] came out at 292 M⁻¹ s⁻¹. Moreover, half-maximal cytotoxicity in series [5] (CC50 at 48 h) was put at 41.7 µM.
In series [1], `CCSC(=O)N[C@@H](CC(C)C)C(=O)N(C)[C@@H](Cc1ccccc1)C(=O)N[C@H](/C=C/C(=O)N(C)OC)CCC(N)=O` [Compound 36, N-Methoxy-N-Methyl-3-(Ethylthiocarbonyl-L-Leu-L-N-Me-Phe-L-Gln)-E-Propenamide] registered a TI above 9. This molecule also gave a pEC50 in series [1] of 4.95. The kinact/KI was 2000 M⁻¹ s⁻¹ in series [2], 750 M⁻¹ s⁻¹ in series [3] and 400 M⁻¹ s⁻¹ in series [4]. For the same molecule, the CC50 at 48 h in series [5] was above 100 µM.
For the molecule `CCOC(=O)/C=C/[C@H](CCC(N)=O)NC(=O)[C@H](Cc1ccccc1)N(C)C(=O)[C@@H](NC(=O)SC1CCCC1)C(C)C` [Compound 35, Ethyl-3-(Cyclopentylthiocarbonyl-L-Val-L-N-Me-PHe-L-Gln-)-E-Propenoate], in series [1], the TI was above 526. Further, in series [1], the pEC50 is 6.72. The kinact/KI turned out to be 22500 M⁻¹ s⁻¹ in series [2], 3480 M⁻¹ s⁻¹ in series [3] and 1600 M⁻¹ s⁻¹ in series [4]. This molecule came in with a CC50 at 48 h in series [5] above 100 µM.

The values above are taken from patent US5962487A, “Antipicornaviral compounds and methods for their use and preparation” (Agouron Pharmaceuticals, Inc., priority 1997, dated 1999).
